Measurements taken from the supplement of paper PMC11451515.

Tested on: NOMO1
Test: cell viability relative to DMSO control; higher = less cytotoxic
Settings: 48 h
How it was run: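 Cells were incubated for 48 h at 37°C before CellTiter-Glo One luminescence was read. The cells were NOMO1 or SEM (500 cells/well) or P12-Ichikawa (1000 cells/well) leukemia cells, adapted for at least four passages in each medium and seeded in 1536-well plates (5 μl). Dosing used library compounds in DMSO applied by pin over 11 threefold points, 47 μM to 0.79 nM. Viability is the per-plate percentage of DMSO wells, with cell-free wells as background.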

[1] = HPLM + 10% dialyzed FBS, 0.000781 µM
[2] = HPLM + 10% dialyzed FBS, 0.00234 µM
[3] = HPLM + 10% dialyzed FBS, 0.00702 µM
[4] = HPLM + 10% dialyzed FBS, 0.0211 µM
[5] = HPLM + 10% dialyzed FBS, 0.0632 µM
[6] = HPLM + 10% dialyzed FBS, 0.19 µM
[7] = HPLM + 10% dialyzed FBS, 0.569 µM
[8] = HPLM + 10% dialyzed FBS, 1.71 µM
[9] = HPLM + 10% dialyzed FBS, 5.12 µM
[10] = HPLM + 10% dialyzed FBS, 15.4 µM
[11] = HPLM + 10% dialyzed FBS, 46.1 µM
[12] = RPMI 5 mM glucose + 10% FBS, 0.000781 µM
[13] = RPMI 5 mM glucose + 10% FBS, 0.00234 µM
[14] = RPMI 5 mM glucose + 10% FBS, 0.00702 µM
[15] = RPMI 5 mM glucose + 10% FBS, 0.0211 µM
[16] = RPMI 5 mM glucose + 10% FBS, 0.0632 µM
[17] = RPMI 5 mM glucose + 10% FBS, 0.19 µM
[18] = RPMI 5 mM glucose + 10% FBS, 0.569 µM
[19] = RPMI 5 mM glucose + 10% FBS, 1.71 µM
[20] = RPMI 5 mM glucose + 10% FBS, 5.12 µM
[21] = RPMI 5 mM glucose + 10% FBS, 15.4 µM
[22] = RPMI 5 mM glucose + 10% FBS, 46.1 µM
[23] = RPMI 5 mM glucose + 10% dialyzed FBS, 0.000781 µM
[24] = RPMI 5 mM glucose + 10% dialyzed FBS, 0.00234 µM
[25] = RPMI 5 mM glucose + 10% dialyzed FBS, 0.00702 µM
[26] = RPMI 5 mM glucose + 10% dialyzed FBS, 0.0211 µM
[27] = RPMI 5 mM glucose + 10% dialyzed FBS, 0.0632 µM
[28] = RPMI 5 mM glucose + 10% dialyzed FBS, 0.19 µM
[29] = RPMI 5 mM glucose + 10% dialyzed FBS, 0.569 µM
[30] = RPMI 5 mM glucose + 10% dialyzed FBS, 1.71 µM
[31] = RPMI 5 mM glucose + 10% dialyzed FBS, 5.12 µM
[32] = RPMI 5 mM glucose + 10% dialyzed FBS, 15.4 µM
[33] = RPMI 5 mM glucose + 10% dialyzed FBS, 46.1 µM

Row | SMILES | cell viability [1] | cell viability [2] | cell viability [3] | cell viability [4] | cell viability [5] | cell viability [6] | cell viability [7] | cell viability [8] | cell viability [9] | cell viability [10] | cell viability [11] | cell viability [12] | cell viability [13] | cell viability [14] | cell viability [15] | cell viability [16] | cell viability [17] | cell viability [18] | cell viability [19] | cell viability [20] | cell viability [21] | cell viability [22] | cell viability [23] | cell viability [24] | cell viability [25] | cell viability [26] | cell viability [27] | cell viability [28] | cell viability [29] | cell viability [30] | cell viability [31] | cell viability [32] | cell viability [33]
1 | O=C1NC(=O)[C@@H](c2cn3c4c(cccc24)CCC3)[C@@H]1c1c[nH]c2ccccc12 | 95.9% | 99.3% | 98.2% | 104% | 107% | 89.3% | 89.8% | 62.9% | 29.7% | 36.4% | 20.6% | 104% | 116% | 115% | 99.5% | 108% | 104% | 110% | 68.6% | 21.1% | 20.8% | 20.5% | 93.1% | 91.3% | 96.2% | 98.7% | 106% | 98.3% | 114% | 80% | 22.4% | 28.5% | 29%
2 | COc1cc2c(N3CCN(C(=O)Nc4ccc(OC(C)C)cc4)CC3)ncnc2cc1OCCCN1CCCCC1 | 68.3% | 89.2% | 85.9% | 88.7% | 83.3% | 87.7% | 112% | 94.2% | 95.2% | 47.4% | 41.2% | 73.1% | 71.7% | 84.7% | 74.5% | 79.4% | 83.8% | 86.3% | 77.5% | 75.4% | 40% | 67.3% | 79.3% | 80.9% | 75.4% | 85.8% | 80.9% | 74% | 89.7% | 93.7% | 85.5% | 43.5% | 55.3%
3 | ClC1=CC=C(CCCOC/2=N/NC(=O)C(=C2NCC3=CN=CC=C3)/Br)C=C1 | 124% | 117% | 150% | 115% | 115% | 118% | 97.9% | 75.4% | 38.8% | 15.9% | 7.76% |  |  |  |  |  |  |  |  |  |  |  | 121% | 120% | 127% | 112% | 111% | 109% | 106% | 106% | 66.2% | 27.8% | 12.9%
4 | COc1cc2nccc(Oc3ccc(NC(=O)C4(C(=O)Nc5ccc(F)cc5)CC4)cc3)c2cc1OC | 113% | 114% | 112% | 116% | 94.2% | 101% | 116% | 104% | 93.7% | 69.8% | 32.3% | 95.6% | 124% | 101% | 114% | 103% | 104% | 95.1% | 107% | 96.2% | 102% | 64.8% | 102% | 99.2% | 110% | 107% | 111% | 98.2% | 109% | 98% | 95.5% | 71.7% | 47.1%
5 | CCOC(=O)C/1=C(C)/NC(=S)NC1C2=CC=CC(=C2)O (stereo not drawn) |  |  |  |  |  |  |  |  |  |  |  | 103% | 124% | 117% | 128% | 123% | 47.3% | 22.7% | 24.3% | 19.3% | 22.3% | 17.1% | 117% | 120% | 133% | 126% | 132% | 99.5% | 33.2% | 32.1% | 22.9% | 26.4% | 23.3%
6 | Fc1cc(-c2cccc3ncc(-c4cnn(C5CCNCC5)c4)nc23)cc(F)c1CN1CCOCC1 | 111% | 122% | 130% | 132% | 108% | 124% | 135% | 103% | 42.6% | 21.5% | 16.1% | 109% | 107% | 119% | 102% | 111% | 116% | 114% | 105% | 84% | 29.4% | 18.3% | 128% | 115% | 124% | 122% | 125% | 103% | 119% | 103% | 95.2% | 54.9% | 25.9%
7 | Cc1cc(Nc2ncc(Cl)c(Nc3ccccc3[S+](=O)([O-])C(C)C)n2)c(OC(C)C)cc1C1CCNCC1 |  |  |  |  |  |  |  |  |  |  |  | 126% | 113% | 112% | 132% | 126% | 127% | 115% | 97% | 76.8% | 54.1% | 6.06% | 127% | 120% | 112% | 117% | 122% | 109% | 105% | 114% | 67% | 52% | 4.03%
8 | COc1cc2ncnc(-n3nc(-c4ccccn4)nc3N)c2cc1OC | 82.3% | 102% | 111% | 101% | 110% | 93.7% | 95.2% | 112% | 86.3% | 74.8% | 0.936% | 83.5% | 86.2% | 92.7% | 101% | 88.6% | 96.3% | 84.9% | 99.3% | 84.7% | 78% | 1.29% | 82.5% | 89.4% | 93% | 110% | 98.4% | 96.7% | 98.5% | 94.5% | 81.8% | 76.4% | 3.64%
9 | CC(C)(C)OC(=O)CN(Cc1ccc(Cl)cc1)Cc1ccc([N+](=O)[O-])s1 | 109% | 95.6% | 107% | 96.8% | 101% | 99.6% | 91.1% | 87.5% | 92.7% | 75.3% | 40.7% | 88.9% | 98.6% | 95.4% | 87% | 93.5% | 105% | 96.3% | 92.9% | 89.7% | 81.3% | 66.5% | 107% | 97.7% | 95.7% | 96.6% | 107% | 94% | 103% | 102% | 95.5% | 87% | 80.1%
10 | CCCCN(CCCC)CCC(O)c1cc2c(Cl)cc(Cl)cc2c2cc(C(F)(F)F)ccc12 (stereo not drawn) | 115% | 115% | 115% | 124% | 119% | 138% | 134% | 121% | 131% | 126% | 123% | 117% | 111% | 119% | 107% | 106% | 126% | 128% | 121% | 121% | 121% | 115% | 116% | 109% | 121% | 126% | 121% | 115% | 135% | 116% | 118% | 122% | 116%
11 | COc1ccc(/C=C\c2cc(OC)c(OC)c(OC)c2)cc1O | 43.4% | 51.5% | 49% | 49% | 44.6% | 47% | 41.7% | 36.6% | 36.1% | 25.3% | 23.2% | 32.1% | 33.7% | 31.2% | 31.2% | 31.7% | 26.6% | 22.5% | 22.1% | 23.3% | 19% | 14.7% | 37.3% | 35.2% | 40.9% | 38.7% | 34.9% | 33.4% | 31.8% | 30.7% | 27.8% | 23.4% | 20%
12 | O=C(NC1CCNCC1)c1n[nH]cc1NC(=O)c1c(Cl)cccc1Cl | 114% | 110% | 123% | 128% | 126% | 127% | 112% | 23.5% | 7.29% | 5.85% | 3.89% | 112% | 110% | 110% | 104% | 112% | 115% | 111% | 33.9% | 9.78% | 7.73% | 3.45% | 116% | 116% | 115% | 113% | 117% | 107% | 98.1% | 35.8% | 7.61% | 7.43% | 3.85%
13 | CN1C(=O)\C(=C/C(=C1/NC2=C(F)C=C(I)C=C2)C(=O)NOCCO)C | 89.8% | 89.6% | 77.9% | 64.2% | 46.3% | 45.8% | 40.2% | 41.6% | 32.9% | 39.8% | 36.1% | 86% | 93.8% | 75.3% | 72% | 50.2% | 52.2% | 49.4% | 46.7% | 43.4% | 41.4% | 46.5% | 75% | 81.7% | 78.5% | 62.9% | 45.9% | 40.8% | 40% | 40.4% | 37.6% | 43.1% | 43.3%
14 | COC[C@H](NC(=O)c1cnc(C)s1)C(=O)N[C@@H](COC)C(=O)N[C@@H](Cc1ccccc1)C(=O)[C@@]1(C)CO1 | 105% | 106% | 111% | 107% | 97.2% | 83.5% | 23.5% | 6.64% | 1.03% | 0.172% | 1.92% | 98.6% | 108% | 92.9% | 94.3% | 93.6% | 98.1% | 28.1% | 6.29% | 1.06% | 0.581% | 1.29% | 98.8% | 98.1% | 97.6% | 96.7% | 98.3% | 88.1% | 30.2% | 5.68% | 2.49% | 0.98% | 1.62%
15 | C[C@H]([C@H](O)CCC(C)(C)O)[C@H]1CC[C@@]2(O)C/3=C/C(=O)[C@@H]4C[C@@H](O)[C@@H](O)C[C@]4(C)[C@H]3CC[C@]12C |  |  |  |  |  |  |  |  |  |  |  | 112% | 115% | 118% | 107% | 106% | 112% | 121% | 104% | 119% | 109% | 104% | 122% | 127% | 125% | 137% | 112% | 121% | 123% | 131% | 125% | 131% | 117%
16 | COc1nc(-c2ccc3c(c2)OCO3)n(-c2ccc(NC(=O)CSc3ccccc3)cc2)n1 |  |  |  |  |  |  |  |  |  |  |  | 105% | 108% | 114% | 103% | 113% | 106% | 107% | 102% | 116% | 89.1% | 21.2% | 102% | 108% | 110% | 117% | 105% | 106% | 103% | 105% | 97.7% | 98.7% | 23.1%
